The target in data set [1] is T1, Met kinase (Homo sapiens, UniProt P08581).
T1 construct: 6His (N); purchased Upstate 14-526; host or cells: Sf21 insect cells (S. frugiperda), baculovirus
As to the kind of experiment: Met kinase inhibition, enzyme assay (flashplate method). The class given is biochemical. The source says:
According to the manufacturer's data (Met, active, upstate, catalogue No. 14-526), Met kinase is expressed for the purposes of protein production in insect cells (Sf21; S. frugiperda) and subsequent affinity-chromatographic purification as “N-terminal 6His-tagged” recombinant human protein in a baculovirus expression vector.
The test plates used are 96-well Flashplate® microtitre plates from Perkin Elmer (Cat. No. SMP200). The components of the kinase reaction described below are pipetted into the assay plate. The Met kinase and the substrate poly Ala-Glu-Lys-Tyr, (pAGLT, 6:2:5:1), are incubated for 3 hrs at room temperature with radioactively labelled ^33P-ATP in the presence and absence of test substances in a total volume of 100 μl. The reaction is terminated using 150 μl of a 60 mM EDTA solution. After incubation for a further 30 min at room temperature, the supernatants are filtered off with suction, and the wells are washed three times with 200 μl of 0.9% NaCl solution each time. The measurement of the bound radioactivity is carried out by means of a scintillation measuring instrument (Topcount NXT, Perkin-Elmer).
The full value used is the inhibitor-free kinase reaction. This should be approximately in the range 6000-9000 cpm. The pharmacological zero value used is staurosporin in a final concentration of […]. The inhibitory values ([…]) are determined using the RS1_MTS program.
Kinase reaction conditions per well:
• 30 μl of assay buffer • 10 μl of substance to be tested in assay buffer with 10% of DMSO • 10 μl of ATP (final concentration 1 μM cold, 0.35 μCi of ^33P-ATP) • 50 μl of Met kinase/substrate mixture in assay buffer; • (10 ng of enzyme/well, 50 ng of pAGLT/well)
Solutions used: • Assay buffer:
50 mM HEPES • 3 mM magnesium chloride • 3 μM sodium orthovanadate • 3 mM manganese(II) chloride • 1 mM dithiothreitol (DTT)
pH=7.5 (to be set using sodium hydroxide) • Stop solution:
60 mM Titriplex III (EDTA) • ^33P-ATP: Perkin-Elmer; • Met kinase: Upstate, Cat. No. 14-526, Stock 1 μg/10 μl; spec. activity 954 U/mg; • Poly-Ala-Glu-Lys-Tyr, 6:2:5:1: Sigma Cat. No. P1152 In-vivo tests

Data set [2] relates to TPR-Met/NIH3T3 cells. The data set is described as follows: In-vivo tests: tumour volume in mice injected subcutaneously with TPR-Met/NIH3T3 cells. The following applies: female Balb/C mice, subcutaneous TPR-Met/NIH3T3 tumours, 200 mg/kg daily by gastric tube, 9 days. The procedure:
Experimental procedure: Female Balb/C mice (breeder: Charles River Wiga) were 5 weeks old on arrival. They were acclimatised to our keeping conditions for 7 days. Each mouse was subsequently injected subcutaneously in the pelvic area with 4 million TPR-Met/NIH3T3 cells in 100 μl of PBS (without Ca++ and Mg++). […] 100 μl of vehicle (0.25% methylcellulose/100 mM acetate buffer, pH 5.5) were administered daily to the control group, and 200 mg/kg of “A56” or “A91” dissolved in the vehicle (volume likewise 100 μl/animal) were administered daily to the treatment groups, in each case by gastric tube.
Measurement of the tumour volume: The length (L) and breadth (B) were measured using a Vernier calliper, and the tumour volume was calculated from the formula L×B×B/2.
Keeping conditions: 4 or 5 animals per cage, feeding with commercial mouse food (Sniff).

The values that follow come from patent US8637518B2, “Pyridazinone derivatives” (MERCK PATENT GmbH, priority 2008, dated 2014).

T1 sequence (P08581 974-1390 limits assumed): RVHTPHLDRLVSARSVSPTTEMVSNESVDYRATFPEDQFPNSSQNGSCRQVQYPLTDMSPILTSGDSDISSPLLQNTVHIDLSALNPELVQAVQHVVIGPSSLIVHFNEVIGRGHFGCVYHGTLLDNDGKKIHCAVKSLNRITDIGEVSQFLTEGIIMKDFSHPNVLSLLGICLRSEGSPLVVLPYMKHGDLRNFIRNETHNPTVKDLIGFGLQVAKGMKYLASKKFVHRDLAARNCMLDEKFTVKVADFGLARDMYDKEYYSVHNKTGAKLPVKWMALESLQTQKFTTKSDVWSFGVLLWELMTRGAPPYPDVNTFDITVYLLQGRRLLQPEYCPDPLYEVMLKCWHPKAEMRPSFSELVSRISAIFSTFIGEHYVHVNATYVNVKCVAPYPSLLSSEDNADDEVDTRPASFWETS

For orientation: IC50 means the concentration that inhibits the measured activity by half. A higher IC50 goes with lower potency. Regarding `Cn1cc(-c2ccc(=O)n(Cc3cccc(-c4ncc(OC[C@H]5C[C@@H]5CN)cn4)c3)n2)cn1` [Compound A18, 2-{3-[5-((1S,2S)-2-Aminomethylcyclopropylmethoxy)pyrimidin-2-yl]benzyl}-6-(1-methyl-1H-pyrazol-4-yl)-2H-pyridazin-3-one], the half-inhibitory concentration (IC50) in data set [1] was 10 to 1000 nM. In addition, in data set [2], the antitumoural action result is recorded as “significant antitumoural action”.
`Cn1cc(-c2ccc(=O)n(Cc3cccc(-c4ncc(OC5CCC(O)C5)cn4)c3)n2)cn1` (centres unmarked) [Compound A22, 2-{3-[5-(3-hydroxycyclopentyloxy)pyrimidin-2-yl]benzyl}-6-(1-methyl-1H-pyrazol-4-yl)-2H-pyridazin-3-one]: the antitumoural action entry in data set [2] is “significant antitumoural action”.
Usually melting point stands for the temperature, or range, at which the solid turns liquid. With `CC(C)Oc1cnc(-c2cccc(Cn3nc(-c4cccc(C#N)c4)ccc3=O)c2)nc1` [Compound D2, 3-{1-[3-(5-Isopropoxypyrimidin-2-yl)benzyl]-6-oxo-1,6-dihydropyridazin-3-yl}benzonitrile], the melting point was 200 to 201 °C.
In turn, `COc1cnc(-c2cccc(Cn3nc(-c4cccc(C#N)c4)ccc3=O)c2)nc1` [Compound D3, 3-{1-[3-(5-Methoxypyrimidin-2-yl)benzyl]-6-oxo-1,6-dihydropyridazin-3-yl}-benzonitrile] gave a melting point of 229 to 230 °C.
